Measured values published in EP4640694A1, “SELF-ASSEMBLING PEPTIDE” (CYTOPORT (TIANJIN) BIOTECHNOLOGY CO., LTD, priority 2022, dated 2025).
Where a SMILES comes first, the peptide text is derived from it. [ ]: non-standard residue; d: D form. Hyp = O=C(O)[C@@H]1C[C@@H](O)CN1

Key:
[1] = Rheological experiment, energy storage modulus (G') of peptide/serum mixture; format: physicochemical; conditions: 0.5% peptide, 10 v/v% fetal bovine serum, neutral pH
Excerpt: Experimental Methods: Preparation of Self-Assembling Peptide Material Samples: 2 wt% of the self-assembling peptide solution obtained in Example 2 was used, the sequences as shown in SEQ ID NO:1 (IIIIGSIIGPGGDGPGGV), SEQ ID NO:2 (IIIIGSIIGPGGEGPGGV), SEQ ID NO:3 (IIIIGSIIGOGGEGPGGV), SEQ ID NO:4 (IIIIGSIIGOGGGEGPGGV), SEQ ID NO:5 (IIIIGSIIGOGGEGPGGGV), SEQ ID NO:6 (IIIIGSIIGOGGEGPGV), SEQ ID NO:7 (IIIIGSIIGOGAEGPGGV), SEQ ID NO:8 (IIIIIGSIIOGGAEGPGGV), SEQ ID NO:9 (IIIIIGSIIGOGGVGPGGV), and SEQ ID NO: 10 (IIIIIIGSIIGOGAEGPGGVGPGGV).
Preparation of hydrogel samples formed by self-assembling peptide solutions in response to cell complete medium: 2 wt% of stock solution of self-assembling peptides obtained in Example 2 was diluted with phosphate buffer, added by fetal bovine serum to achieve a mixture solution with a final concentration of self-assembling peptide of 0.5%, a final concentration of serum of 10 v/v% with a neutral pH.
The energy storage modulus (G') of the mixture solution was measured on a 20 mm plate using MARS 60 rheometer. In order to determine the rate of formation of three-dimensional nanomatrix, the solution was placed on a plate for testing immediately after preparation. A gap of 500µm was used, mineral oil was added to the gap to prevent dehydration of the samples, and data collection commenced immediately. Dynamic Time-Scanning experiment (DTS) was performed to monitor changes in energy storage modulus (G') with time (1 Hz frequency, 1% strain) for 2000 min.

[2] = system: mouse mesenchymal stem cells; experiment: Cell storage at 4°C, Calcein-AM/PI live/dead staining by flow cytometry; format: cell-based; conditions: for survival rate of mouse mesenchymal stem cells: 3D storage group, 0.05% peptide
Procedure: Experimental Methods: Storage of mouse mesenchymal stem cells at 4°C was taken as an example in this experiment. The isolated mouse mesenchymal stem cells were mixed well by pipetting, […] aliquots were dispensed into freezing tubes, and mixed well by pipetting so that their cell concentration was about 1×10^6 cells/mL. In 3D group, mouse serum, 1% of double antibody of 50% MAP+50% SFEM storage solution and the polypeptide as shown in SEQ ID NO.:20 (FLIVIGOGIIGOGGEGPGGE) were added to a final concentration of 0.05%. In 2D group, mouse serum and 1% of double antibody of 50% MAP+50% SFEM storage solution were added, followed by storage in a 4°C refrigerator.
Cell viability test: • (1) The preserved cells were thoroughly pipetted and mixed well, 500 µL of each cell suspension was taken into a 1.5 mLEP tube, PBS was added for washing, followed by centrifugation at 1,500 rpm for 10 minutes; and • (2) The supernatant was discarded, and the cells were resuspended in 150 µL of 1% PBA solution. Then, 150 µL of live/dead cell staining working solution was added, mixed thoroughly, and incubated at 37°C in a light-protected manner for 15 minutes. The samples were analyzed using a flow cytometer.

[3] = system: HepG2 cells; experiment: Cytocompatibility: relative viability (CCK-8) and cell counting over 5 days; format: cell-based; conditions: 0.1%, 0.3%, 0.5%, 0.7% peptide, 5 days without medium change
Procedure: The method in Experiment I for preparing a cell suspension at a concentration of 5×10^5 cells/mL was used to prepare a cell suspension at a concentration of 5×10^4 cells/mL. The cells obtained at a concentration of 5×10^4 cells/mL were inoculated into 96-well plates with each well containing about 5,000 cells. In the experimental groups, the self-assembling peptide sol prepared according to the method in Example 2 was added to achieve the concentrations of polypeptide of 0.1%, 0.3%, 0.5%, and 0.7% in the final system. In the control group, an equal volume of PBS buffer was added to replace the peptide solution, respectively. […] During the experiment, 10% of the culture volume of CCK-8 kit was added every 24 hours, and after incubation for 30 minutes, the OD values of each group were measured using an enzyme labeler (parameter setting: primary wavelength of 450 nm, secondary wavelength of 630 nm), and all experiments were set up with 5 parallel groups, and the results of the experiments were shown in Figure 9A. Relative cell viability was calculated using the formula below: Relative cell viability (%) = (At−A0t)/(A1−A01) × 100%; [formula]
Wherein At is the average OD values measured after t days of culturing cells. A0t is the average value of blank background measured after t days. […]

[4] = system: HepG2; experiment: Cell condition after culture: 5-day viability of cells harvested from spheroids; format: cell-based; conditions: cells harvested after 15 days in 0.1 wt.% peptide, 5-day viability test
Excerpt: In this experiment, cell spheroids cultured in Experiment III using the polypeptides as shown in SEQ ID NO.: 13 (IIIIIGOGIIGPGGEGPGGE) of the present invention at a concentration of 0.1 wt.% initiated by high-glucose medium were collected by centrifugation and digested into single cells. The applicability of the material of the present invention in cell culture and biomedical field were further evaluated by comparing the cell viability of cells cultured with the material of the present invention with that of cells cultured without the material of the present invention.
The cell spheroids in Experiment III were collected by centrifugation after 15 days of culture, and the cell spheroids were digested into single cells using trypsin, then centrifuged and collected, and an appropriate amount of high-glucose medium was added to the collected cells to prepare cell suspensions at concentrations of 5×10^5 and 5×10^4 cells/mL. Cell suspensions at a concentration of 5 ×10^4 cells/mL were inoculated into 96-well plates so that each well contained 5,000 cells. A cell suspension at a concentration of 5×10^4 cells/mL was prepared according to the method in […] for preparing a cell suspension at a concentration of 5×10^5 cells/mL and it was inoculated into a 96-well plate so that each well contained 5,000 cells, which served as a control group for this experiment. […]

[5] = system: erythrocytes; experiment: Erythrocyte support by different sequences under liquid conditions; format: cell-based; conditions: 0.01 wt% peptide, 0.1 wt% fibronectin, 1×10^8 erythrocytes
Procedure: Experimental Methods: PBS buffer was used to separately prepare a concentration of 0.1 wt% stock solutions of self-assembling peptides as shown in SEQ ID NO.: 1 (IIIIIGSIIGPGGDGPGGV), SEQ ID NO.: 2 (IIIIIGSIIGPGGEGPGGV), SEQ ID NO.: 3 (IIIIIGSIIGOGGEGPGGV), and SEQ ID NO.: 7 (IIIIIGSIIGOGAEGPGGV). These solutions were autoclaved.
Using 2 mL clear glass vials, 4 materials were prepared at concentrations of 0.1 wt%, 0.05 wt%, and 0.01 wt% in 2 mL of self-assembling peptide solution (containing a final concentration of 0.1 wt% of fibronectin) and a blank group (without self-assembling peptide solution, but containing 0.1 wt% of fibronectin). A stock solution of at a concentration of 5×10^9 erythrocytes was added to each sample to a final concentration of 1×10^8, and the mixture was homogenized by pipetting. Photographs were taken every 4 hours to compare the effects of different materials on the support for erythrocytes.

[6] = system: erythrocytes; experiment: Erythrocyte support experiment with different initiator components; format: cell-based
Procedure: Experimental Methods: […] of erythrocyte stock solution (9.17×10^9/mL) was taken and diluted to 10 mL (9.17×10^7/mL) with 10 mM PBS, 4.5mL of erythrocyte dilution was added to a 10 ml of round-bottom tube and 4.5 mL of 4 mmol/L Calcein-AM solution was added, and the mixture was incubated at 37°C for 20 min and then centrifuged at 4°C, 1500r/min for 3 min. The supernatant was removed, and the pellet was resuspended in PBS, and repeated for 5 times to obtain about 1.5 mL of washed erythrocyte resuspension (1×10^8/mL) for latter use.
Experimental Results: PBS buffer was added to the erythrocyte resuspension solution to dilute the erythrocytes to 1×10^7/mL, and the mixture was allowed to stand for 4 hours, and the result was shown in Tube A in Figure 6.
The 1 wt% of self-assembling peptide solution (SEQ ID NO.:3) obtained in Example 2 was added ro make the final peptide concentration in the system of 0.05 wt% and the final concentration of erythrocytes of 1×10^7/mL, and the mixture was allowed to stand for 4 hours, and the result was shown in Tube B in Figure 6.
The mixed solution of polypeptide as shown in SEQ ID NO.:3 with lysine obtained in Example 3 was added to the erythrocytes resuspension solution, i.e., the polypeptide formed a three-dimensional network scaffold material in the presence of lysine, achieving a final peptide concentration in the system of 0.05 wt.%, mixing well and standing, and the result was shown in Tube C in Figure 6.
(§1) The mixted solution of self-assembling peptide as shown in SEQ ID NO.:3 with gentamicin obtained in Example 2 was added to the erythrocytes resuspension solution, i.e., the polypeptide formed the three-dimensional network scaffold material in the presence of gentamicin, achieving a final peptide concentration in the system of 0.05 wt.%, mixing well and standing, and the result was shown in Tube D in Figure 6.
as §1, with “with polylysine” for “with gentamicin”, “the self-assembling peptide” for “the polypeptide”, “of polylysine,” for “of gentamicin,”, “Tube E” for “Tube D”
as §1, with “with fibrinogen” for “with gentamicin”, “Example 3” for “Example 2”, “the self-assembling peptide” for “the polypeptide”, “of fibrinogen,” for “of gentamicin,”, “Tube F” for “Tube D”

## IIIIGSIIGOGGGEGPGGV [SEQ ID NO.: 4]
[1]
  hydrogel structure and elasticity in response to serum: could still form a hydrogel structure but with weaker elasticity

## FLIVIGOGIIGOGGGEGPGGE [SEQ ID NO.: 20]
[2]; day 3 of storage (2D group 67%)
  survival rate of mouse mesenchymal stem cells: 79%
[2]; day 5 of storage (2D group 43%)
  survival rate of mouse mesenchymal stem cells: 71%
[2]; day 5 of storage
  increase in survival versus 2D storage: ~30%

## CC[C@H](C)[C@H](N)C(=O)N[C@H](C(=O)N[C@H](C(=O)N[C@H](C(=O)N[C@H](C(=O)NCC(=O)N1C[C@H](O)C[C@H]1C(=O)NCC(=O)N[C@H](C(=O)N[C@H](C(=O)NCC(=O)N1CCC[C@H]1C(=O)NCC(=O)NCC(=O)N[C@@H](CCC(=O)O)C(=O)NCC(=O)N1CCC[C@H]1C(=O)NCC(=O)NCC(=O)N[C@@H](CCC(=O)O)C(=O)O)[C@@H](C)CC)[C@@H](C)CC)[C@@H](C)CC)[C@@H](C)CC)[C@@H](C)CC)[C@@H](C)CC [SEQ ID NO.: 13, IIIIIGOGIIGPGGEGPGGE] (H-IIIIIG[Hyp]GIIGPGGEGPGGE-OH)
[3]
  growth curve (cell counting) over 5 days: grew with a relatively uniform and stable proliferation rate
  relative cell viability over 5 days (CCK-8): uniform and continuous steady increase in cell viability
[4]
  cell viability of harvested cells compared with control group: slightly better than that of the control group

## IIIIIGSIIGOGGGEGPGGGV [SEQ ID NO.: 5]
[1]
  hydrogel structure and elasticity in response to serum: could still form a hydrogel structure but with weaker elasticity

## IIIIIGSIIGOGGGEGPGGV [SEQ ID NO.: 3]
[5]
  time at which significant sedimentation of erythrocytes was shown: 32 h
[6]; Tube B: 0.05 wt% peptide alone, no initiator, 1×10^7/mL erythrocytes, 4 hours
  erythrocyte distribution: significant sedimentation
[6]; Tube C: 0.05 wt.% peptide with lysine
  erythrocyte distribution: stereoscopic distribution
[6]; Tube D: 0.05 wt.% peptide with gentamicin
  erythrocyte distribution: stereoscopic distribution
[6]; Tube E: 0.05 wt.% peptide with polylysine
  erythrocyte distribution: stereoscopic distribution
[6]; Tube F: 0.05 wt.% peptide with fibrinogen
  erythrocyte distribution: three-dimensional stereoscopic dispersion of the erythrocytes

## IIIIIGSIIGOGGGEGPGV [SEQ ID NO.: 6]
[1]
  hydrogel structure and elasticity in response to serum: could still form a hydrogel structure but with weaker elasticity
